“Also recorded” adds a separate entry of the source.
What was measured:
[1] = test system: advanced non-small cell lung cancer; test: Clinical study with patients suffering from advanced non-small cell lung cancer; assay type: in vivo, human
Procedure: Through pathology or cytology diagnosis, 66 advanced non-small cell lung cancer patients were selected and randomly divided into two groups. Group A had 32 patients who were treated with chlorin e4 sodium. Group B had 34 patients who were treated with both chemotherapy and radiotherapy.
For group A, chlorin e4 sodium was administered at a dosage of 2 mg per kilogram of body weight, with two thirds administered by inhalation and one third administered orally. After the irradiation target(s) had been determined, an optical fibre for laser treatment purposes was guided into the lung tumor(s) via an interstitial procedure. Irradiation light intensity was 200 J/cm^2, irradiation power was 1,000 mW, and irradiation lasted for eight to ten minutes. Laser irradiation into the tumor was two to five centimeters in depth. Irradiation was either performed phase by phase (sub-paragraph treatment) based on tumor size or performed repeatedly.
For group B, for the radiotherapy, a 15 MV X-ray radiation therapy irradiation field covered primary lung tumor lesion(s) and mediastinal lymphatic drainage area, with a dosage of 65-70 Gy, administered on every first day in a week of radiotherapy. For the chemotherapy, 20 mg cisplatin was administered by intravenous application.

[2] = test system: invasive ductile breast cancer and lymph node metastases; test: In vivo studies Example 1: patient, oral chlorin e4 sodium plus laser and LED light; set-up: species or system human
Procedure: A patient with invasive ductile breast cancer and lymph node metastases in the right arm pit, was treated successfully. Prior to treatment a large cancer mass in the right breast was observed and a small cancer mass in the right arm pit. The treatment consisted of three courses. For each course, five doses of 62.5-187.5 mg chlorin e4 sodium were administered orally over the course of eight days. 24-48 hours after each oral dose of chlorin e4 sodium, the patient was treated with laser and LED light having a wavelength of 660 nm and 760 nm.
Subsequently the patient was treated with two further courses. Again, for each course, five doses of 62.5-187.5 mg chlorin e4 sodium were administered orally over the course of eight days. 24-48 hours after each oral dose of chlorin e4 sodium, the patient was treated with laser and LED light having a wavelength of 660 nm and 760 nm. Additionally an interstitial light treatment using a fine needle was performed on the breast with an optical fibre laser having a wavelength of 660 nm and 760 nm.

S180 sarcoma = test: Photodynamic therapy study with mice with subcutaneous S180 sarcoma; assay type: in vivo, Kunming mice
Procedure: In this experiment the effects of photodynamic therapy mediated by three different photosensitizers, namely Duteroporphyrin, chlorin e4 sodium and 5-ALA, on mouse S180 sarcoma were observed. Duteroporphyrin and 5-ALA are porphyrin derivatives.
40 Kunming mice with well grown subcutaneous S180 sarcoma were randomly divided into four groups: (A) Duteroporphyrin group (10 mg/kg), (B) chlorin e4 sodium group (20 mg/kg), (C) 5-ALA group (100 mg/kg) and (D) blank control group. The mice in groups A and B were subjected to irradiation 8-10 hours after tail vein injection of the photo sensitizers, while the mice in group C were subjected to irradiation 3 hours after tail vein injection of the photosensitizer. A laser with a wavelength of 630 nm was used for groups A and C, while a duel-frequency laser with wavelengths of 660 nm and 760 nm was used for group B. The local tumour sites were irradiated vertically, with the diameter of the laser spots being 1.2-1.5 cm. The whole tumour and 3-5 mm of normal tissue around the tumour were covered by the laser. The lasers were applied to groups A, B and C for 20 minutes, with a power density of 150 mW/cm^2 and an energy density of 180 J/cm^2. The mice in control group D were not subjected to irradiation.

[3] = Singlet oxygen detection by photosensitized oxygenation of DPIBF; assay type: physicochemical; conditions: ethanol, red light 660 nm
Excerpt: The second method of singlet oxygen detection was based on photosensitized oxygenation of the singlet oxygen conjugate 1,3-diphenylisobenzofuran (DPIBF) (Acros Organics, United Kingdom). DPIBF chemically binds to two singlet oxygens (^1O2) (FIG. 3). This method was applied to chlorin e4 sodium solutions in ethanol. The major absorption band of DPIBF is located at 414-415 nm. The molar absorption coefficient in this maximum, εDPIBF, is known to be 23500 M^−1 cm^−1. Tested solutions were irradiated by the monochromatic light from a xenon lamp using the excitation system of the spectrofluorimeter Perkin-Elmer MPF-44B, the spectral width of the monochromator bandwidth corresponding to 5 nm. Radiant power was measured using the calibrated detector ThorLabs PM-100 (Germany). The singlet oxygen quantum yields (ΦΔ) were calculated according to the equation: […]

[4] = test system: breast cancer in the right breast; test: In vivo studies Example 9: patient, oral chlorin e4 sodium plus laser and LED light; set-up: species or system human
Procedure: A patient with breast cancer in the right breast was treated successfully. The treatment consisted of three courses. For each course, five doses of 62.5-187.5 mg chlorin e4 sodium were administered orally over the course of eight days. 24-48 hours after each oral dose of chlorin e4 sodium, the patient was treated with laser and LED light having a wavelength of 660 nm and 760 nm.

[5] = group A (32 patients): chlorin e4 sodium 2 mg/kg inhalation and oral + interstitial laser, group B (34 patients): cisplatin 20 mg iv + radiotherapy
[6] = 21 days after the treatments, P<0.05

## C=Cc1c(C)c2cc3nc(c(C)c4[nH]c(cc5nc(cc1[nH]2)C(C)=C5CC)c(C)c4C(=O)O)[C@@H](CCC(=O)O)[C@@H]3C [chlorin e4 sodium]
[1]; [5]
  One year survival rate: 93.75%
  Two years survival rate: 68.75%
[1]; group A: chlorin e4 sodium 2 mg/kg + interstitial laser, group B: cisplatin 20 mg iv + radiotherapy
  Combined complete and partial remission rate: 56.20%
[2]; after the fifth and final treatment course
  Response in the breast and lymph nodes (PET/CT): complete response
[2]; after the fourth treatment course
  Reduction in size of large cancer mass in the breast (doppler ultrasound): about 25%
[2]; after three courses
  Size of large cancer mass in the breast (doppler ultrasound): had not reduced in size
  Vascularity of large cancer mass in the breast (doppler ultrasound): almost no vascularity
  Vascularity of smaller lymph node cancer mass (doppler ultrasound): almost no vascularity
[2]; after three courses, reduced from 1.9 cm
  Size of smaller lymph node cancer mass: 1 cm
[2]; inflammatory response after each course, burning sensation towards the end of the second course
  Reactions at the breast tumour site: inflammatory response; also recorded: burning sensation
[2]; two years and three months after starting, five months after completion of treatment
  Patient status: alive and well
S180 sarcoma; 24 hours after the treatment
  Pathological changes of tumour tissues (HE staining): a wide range of tumour necrosis, tumour vascular disruption and neutrophil infiltration
S180 sarcoma; 24 hours after treatments
  Living tumour cells versus control group D (FCM): obviously fewer
  Proportions of apoptotic and necrotic tumour cells versus control group D (FCM): a lot higher
S180 sarcoma; [6]
  Mean tumour volume versus control group D: statistically significantly smaller
  Mean tumour volume, group B versus group C (5-ALA): statistically significantly smaller in group B than group C
S180 sarcoma; after treatments
  Tumour appearance after treatment (eschars): Black eschars
S180 sarcoma; mouse, in vivo
  Recovery of skins and fur: fully recovered
S180 sarcoma; six days after the treatments
  Sizes of tumours versus control group D: no obvious difference
S180 sarcoma; summary of study, P<0.05
  Therapeutic effect compared with 5-ALA: statistically significantly better therapeutic effect
S180 sarcoma; tail vein: Duteroporphyrin 10 mg/kg, chlorin e4 sodium 20 mg/kg, 5-ALA 100 mg/kg, laser 20 minutes, 180 J/cm^2
  Tumour inhibition rate: 75.4%
[3]
  Quantum yield of singlet oxygen generation: 0.68±0.05
[4]; before and after three courses
  Response of the breasts (mammography, ultrasound and PET/CT): complete response
[4]; one year and seven months after starting, 10 months after completion of treatment
  Patient status: alive and well
[4]; three courses
  Side effects: no side effects
